Experimental findings from patent US8940716B2, “Bicyclic heteroaryl compounds as GPR119 modulators” (Bristol-Myers Squibb Company, priority 2010, dated 2015) are described below.

For the assay, the target named is T1, human-mouse chimeric GPR119 (Homo sapiens, UniProt Q8TDV5, A235T/C313R/C323Y/E253K/F304I/F307L/G211A/G245S/H255C/K284R/L224V/L258Q/L288Q/L301F/P218V/P318T/Q252H/R262K/S214P/S219N/S228A/S309P/S322A/T217S/T239S/V227I/V300F).
T1 construct: the first 198 amino acids of human GPR119; the C-terminal 137 amino acids of the mouse receptor; expressed in transfected cells
T1 sequence (Q8TDV5 with tags, fused parts or gaps G211A/S214P/T217S/P218V/S219N/L224V/V227I/S228A/A235T/T239S/G245S/Q252H/E253K/H255C/L258Q/R262K/K284R/L288Q/V300F/L301F/F304I/F307L/S309P/C313R/P318T/S322A/C323Y): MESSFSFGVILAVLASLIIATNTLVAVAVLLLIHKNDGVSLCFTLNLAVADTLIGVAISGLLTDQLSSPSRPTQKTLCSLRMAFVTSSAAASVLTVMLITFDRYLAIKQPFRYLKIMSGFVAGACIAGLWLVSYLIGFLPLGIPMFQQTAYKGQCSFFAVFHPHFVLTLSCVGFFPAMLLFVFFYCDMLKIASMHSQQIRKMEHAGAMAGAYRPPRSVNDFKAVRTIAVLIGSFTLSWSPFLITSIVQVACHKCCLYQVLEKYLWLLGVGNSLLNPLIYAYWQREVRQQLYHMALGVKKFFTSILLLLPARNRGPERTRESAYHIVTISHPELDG
Description: Tet-inducible cAMP assay. Format: cell-based. Here is the method:
The in vitro modulation of recombinant human GPR119 was determined as follows.
A human-mouse chimeric GPR119 expression construct encoding 3 copies of the FLAG epitope tag, the first 198 amino acids of human GPR119 and the C-terminal 137 amino acids of the mouse receptor was cloned into a tetracycline inducible vector pcDNA5/FRT/TO (Invitrogen #V6520-20), which includes a hygromycin-resistance marker. Tightly controlled receptor expression was achieved by stable integration of this construct into the genome of a specific host cell line, Flp-In-T-Rex-HEK293, expressing the tetracycline repressor (Invitrogen). Once a stable hygromycin-resistant cell line was generated, the cells were maintained at 37° C. in a humidified 5% CO2 atmosphere in culture medium consisting of Dulbecco's modified Eagle's medium (DMEM; Invitrogen #11960) supplemented with 2 mM L-glutamine, 10% fetal bovine serum, 200 μg/ml hygromycin B, and 15 μg/ml blasticidin.
Forty-eight hours prior to the cAMP accumulation assay, cells stably expressing the chimeric human/mouse GPR119 construct were seeded at a density of 4×10^3 cells/well in 384 well poly-D-lysine coated solid white plates (BD #35-6661) and grown at 37° C. in a humidified 5% CO2 atmosphere in culture medium supplemented with 1 μg/ml tetracycline to induce expression of the receptor. On the day of the assay, medium was removed and cells were incubated for 50 min. at 37° C. in a humidified 5% CO2 atmosphere in 20 μl/well of assay buffer (phosphate-buffered saline with Ca^2+ and Mg^2+, 12 mM glucose, 0.1 mM isobutyl-methyl-xanthine, 0.1% fatty-acid free bovine serum albumin) with the desired concentration of compound added from a concentrated stock dissolved in dimethyl sulfoxide (DMSO) to give a final concentration of 1% DMSO in the assay. cAMP accumulation was measured using the CisBio homogeneous time resolved fluorescence (HTRF) assay kit (#62AM2PEC) following the manufacturer's protocol. Briefly, 10 μl each of the cAMP-HTRF fluorescence detection reagents were added to each well, and the samples were incubated for 40 min. at room temperature. Fluorescence was excited at 320 nm and measured at 665 and 620 nm using the Envision instrument (Perkin Elmer), the fluorescence ratio of 665/620 was calculated and converted to nanomolar concentrations of cAMP in each well by interpolation from a cAMP standard curve. The concentration-response curves and EC50 values were calculated with a four parameter logistic curve fit equation utilizing Excel/XLfit software (Microsoft and IDBS). The EC50 value was calculated as the concentration of agonist which increased the cAMP concentration to a value halfway between the baseline and the maximum.
Compounds of the present invention were tested in the Tet-inducible cAMP assay described immediately above and the results shown in Table 2 below were obtained.

Where [1] appears, read: cAMP accumulation (HTRF), Flp-In-T-Rex-HEK293 cells expressing chimeric human/mouse GPR119, 50 min incubation, read-out: GPR119 EC50.

Molecules are shown by their SMILES. Like-named read-outs stand apart in the source and are kept apart here.

In the case of `CCCc1cnc(N2CCC(Cc3nc4ccc(C5CCN(S(=O)(=O)CCC)CC5)cc4o3)CC2)nc1` [Example 147], under setting [1], the EC50 was determined as 49.3 nM.

As for `CCCc1cnc(N2CCC(Nc3nc4ccc(C5=CCN(S(=O)(=O)CCC)CC5)cc4s3)CC2)nc1` [Example 53], under setting [1], the EC50 turned out to be 283 nM. Same read-out and setting: the same measure for `CCCS(=O)(=O)N1CC=C(c2ccc3nc(OC4CCN(S(C)(=O)=O)CC4)sc3c2)CC1` [Example 111]: 228 nM. On to `CCCc1cnc(N2CCC(Nc3nc4ccc(C5=CCN(S(C)(=O)=O)CC5)cc4s3)CC2)nc1` [Example 54], for which the concentration for a half-maximal effect (EC50) under setting [1] worked out at 450 nM. For the compound `CC(C)(O)CCS(=O)(=O)N1CCC(c2ccc3nc(OC4CCN(c5ncc(Cl)cn5)CC4)sc3c2)CC1` [Example 246], under setting [1], the EC50 was 3.9 nM.

For the compound `CCCc1cnc(N2CCC(Oc3nc4ccc(C5=CCN(c6ncc(C)s6)CC5)cc4s3)CC2)nc1` [Example 61], under setting [1], the EC50 turned out to be 547 nM.

Regarding `CC(C)(O)CCS(=O)(=O)N1CCN(c2ccc3nc(OC4CCN(c5ncc(F)cn5)CC4)sc3c2)CC1` [Example 216], under setting [1], the EC50 is 8.3 nM.

For the compound `CCCc1cnc(N2CCC(Oc3nc4ccc(C5=CCN(S(=O)(=O)CCCCCCP(=O)(OC)OC)CC5)cc4s3)CC2)nc1` [Example 177], a half-maximal response (EC50) required 9.7 nM. Regarding `CCCc1cnc(N2CCC(Cc3nc4ccc(C5=CCN(S(=O)(=O)CCC(C)(C)O)CC5)cc4o3)CC2)nc1` [Example 141], the EC50 under setting [1] worked out at 9.5 nM. The same measure, in the same setting: the same measure for `CCCc1cnc(N2CCC(Oc3nc4ccc(C5=CCN(S(=O)(=O)CCN6CC(O)C6)CC5)cc4s3)CC2)nc1` [Example 7, 1-(2-(4-(2-(1-(5-Propylpyrimidin-2-yl)piperidin-4-yloxy)benzo[d]thiazol-6-yl)-5,6-dihydropyridin-1(2H)-ylsulfonyl)ethyl)azetidin-3-ol]: 33.9 nM; for `CC(C)(O)CCS(=O)(=O)N1CC=C(c2ccc3nc(OC4CCN(c5ncc(Cl)cn5)CC4)sc3c2)CC1` [Example 118]: 3.6 nM. Still for that read-out and setting: the same measure for `CCCc1cnc(N2CCC(Oc3nc4ccc(C5=CCN(C(=O)CC(C)C)CC5)cc4s3)CC2)nc1` [Example 63]: 292 nM; for `CCCS(=O)(=O)N1CC=C(c2ccc3nc(OC4CCN(C(=O)c5csnn5)CC4)sc3c2)CC1` [Example 109]: 37 nM. Take `CCCS(=O)(=O)N1CC=C(c2ccc3nc(OC4CCN(c5nnc(C)s5)CC4)sc3c2)CC1` [Example 107]: under setting [1], the 50% effective concentration (EC50) stood at 21.5 nM.

As for `CC(C)(O)CCS(=O)(=O)N1CC=C(c2ccc3nc(OC4CCN(S(=O)(=O)CC(F)(F)F)CC4)sc3c2)CC1` [Example 205], the EC50 under setting [1] is 169 nM. With `CCCc1cnc(N2CCC(Oc3nc4ccc(C5=CCN(S(=O)(=O)CCC6(O)CC6)CC5)cc4s3)CC2)nc1` [Example 131], the EC50 under setting [1] stood at 5 nM.

As to `CCCc1cnc(N2CCC(Oc3nc4ccc(C5=CCN(S(=O)(=O)CCCC(C)(C)O)CC5)cc4s3)CC2)nc1` [Example 114], under setting [1], the EC50 stood at 4.4 nM. Same read-out and setting: the same measure for `CC(C)OC(=O)N1CCC(Oc2nc3ccc(C4=CCN(C(=O)OC(C)(C)C)CC4)cc3s2)CC1` [Example 301]: 345 nM.

With `COc1cnc(N2CCC(Oc3nc4ccc(C5=CCN(S(=O)(=O)CCCCO)CC5)cc4s3)CC2)nc1` [Example 241], the EC50 under setting [1] was found to be 0.4 nM. Same read-out and setting: for `CCCc1cnc(N2CCC(Oc3nc4ccc(C5=CCN(S(=O)(=O)CCCC(=O)N(CC)CC)CC5)cc4s3)CC2)nc1` [Example 231] the value was 2.3 nM.

On to `CCCc1cnc(N2CCC(Oc3nc4ccc(C5=CCN(S(=O)(=O)c6cccc(C(=O)O)c6)CC5)cc4s3)CC2)nc1` [Example 79], for which the EC50 under setting [1] was 713 nM. Still for that read-out and setting: for `Cc1cc(C)nc(N2CCC(Oc3nc4ccc(-c5ccc(S(C)(=O)=O)cc5)cc4s3)CC2)n1` [Example 296] the value was 46.1 nM. On the same count and under the same terms, for `CC(C)(O)CCS(=O)(=O)N1CC=C(c2ccc3nc(OC4CCN(c5nc6ccccc6s5)CC4)sc3c2)CC1` [Example 168] the value was 3 nM; for `CCCc1cnc(N2CC[C@H](Oc3nc4ccc(C5=CCN(S(C)(=O)=O)CC5)cc4s3)C2)nc1` [Example 116], 22.1 nM.
